Measurements as given in patent US8343475B2, “Small cationic antimicrobial peptides” (priority 2006, dated 2013).
Converted amounts (≈) assume the structure as drawn. Residues, ends and D or L forms follow the SMILES beside them.

Assays:
[1] = test system: Pseudomonas aeruginosa PAO1 strain H103; assay type: cell-based; conditions: for antimicrobial activity against P. aeruginosa PAO1 (in words): laboratory strain P. aeruginosa PAO1
Procedure, shortened: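 Modified broth microdilution MIC in Mueller Hinton medium, peptides diluted in 0.01% acetic acid/0.2% BSA, polypropylene plates. Inoculum 2-7×10^5 CFU/ml, overnight at 37 °C; MIC is the lowest concentration with no visible growth.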

[2] = test system: Enterococcus faecalis ATCC29212; assay type: cell-based; conditions: ATCC29212
Procedure, shortened: (§1)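 MIC by modified broth microdilution in Mueller Hinton medium. Peptides were diluted in 0.01% acetic acid with 0.2% BSA and added at 10× to inoculum of 2-7×10^5 CFU/ml, then incubated overnight at 37 °C. MIC is the lowest concentration with no visible growth.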

Escherichia coli UB1005 = assay type: cell-based; conditions: UB1005
Procedure, shortened: as §1

[3] = test system: Staphylococcus aureus ATCC25923; assay type: cell-based; conditions: ATCC25923
Procedure, shortened: as §1

[4] = test system: clinical isolate of Staphylococcus epidermidis; assay type: cell-based; conditions: clinical isolate of
Procedure, shortened: as §1

[5] = test system: lab isolate of Candida albicans; assay type: cell-based; conditions: lab isolate of
Procedure, shortened: as §1

[6] = test system: wild-type Salmonella enterica ssp. typhimurium; assay type: cell-based
Procedure, shortened: as §1

[7] = test system: IL8 release by human PBMC; experiment: Chemokine induction in PBMC (capture ELISA); assay type: cell-based; conditions: 20 or 100 μg/ml peptide, 24 hours (FIG. 14)
Experimental: FIG. 14. Induction of IL8 release by 7.5×10^5 human PBMC in response to treatment with 20 or 100 μg/ml of different peptides for 24 hours.
Venous blood (20 ml) from healthy volunteers was collected in Vacutainer® collection tubes containing sodium heparin as an anticoagulant (Becton Dickinson, Mississauga, ON) in accordance with UBC ethical approval and guidelines. Blood was diluted 1:1 with complete RPMI 1640 medium and separated by centrifugation over a Ficoll-Paque® Plus (Amersham Biosciences, Piscataway, N.J., USA) density gradient. White blood cells were isolated from the buffy coat, washed twice in RPMI 1640 complete medium, and the number of peripheral blood mononuclear cells (PBMC) was determined by trypan blue exclusion. PBMC (5×10^5) were seeded into 12-well tissue culture dishes (Falcon; Becton Dickinson) at 0.75 to 1×10^6 cells/ml at 37° C. in 5% CO2. The above conditions were chosen to mimic conditions for circulating blood monocytes entering tissues at the site of infection via extravasation.
Following incubation of the cells under various treatment regimens, the tissue culture supernatants were centrifuged at 1000×g for 5 min, then at 10,000×g for 2 min to obtain cell-free samples. Supernatants were aliquoted and then stored at −20° C. prior to assay for various chemokines by capture ELISA (eBioscience and BioSource International Inc., CA, USA respectively)

[8] = test system: MCP-1 release by human PBMC; experiment: Chemokine induction in PBMC (capture ELISA); assay type: cell-based; conditions: background (204) subtracted
Procedure, shortened: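 Heparinized blood from healthy volunteers; Ficoll-isolated human PBMC (7.5×10^5) treated with peptides at 20 or 100 μg/ml for 24 hours at 37° C, 5% CO2. Cell-free supernatants assayed for MCP-1 by capture ELISA.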

[9] = test system: MCP-3 release by human PBMC; experiment: Chemokine induction in PBMC (capture ELISA); assay type: cell-based; conditions: background (6) subtracted
Procedure, shortened: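 Human PBMC from healthy donors (Ficoll-isolated), 7.5×10^5 cells at 0.75–1×10^6 cells/ml, treated with peptides at 20 or 100 μg/ml for 24 h at 37° C, 5% CO2. MCP-3 in cell-free supernatants measured by capture ELISA.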

[10] = test system: CXCL1 (Gro-α) release by human PBMC; experiment: Chemokine induction in PBMC (capture ELISA); assay type: cell-based; conditions: background (196) subtracted
Procedure, shortened: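 Human PBMC from healthy donors' heparinised blood (Ficoll), 7.5×10^5 cells treated with 20 or 100 μg/ml peptide for 24 h at 37° C, 5% CO2. Cell-free supernatants assayed for CXCL1 by capture ELISA.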

[11] = test system: clinical isolates of MRSA; assay type: cell-based, Staphylococcus aureus
Procedure, shortened: (§2)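 Modified broth microdilution in Mueller Hinton medium, peptides serially diluted in 0.01% acetic acid with 0.2% BSA in polypropylene plates. Inoculum 2-7×10^5 CFU/ml, overnight incubation at 37° C; MIC taken as lowest concentration with no visible growth.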

ESBL E. cloacae = assay type: cell-based, Enterobacter cloacae
Procedure, shortened: as §2

[12] = test system: Liverpool Epidemic Strains; assay type: cell-based, Pseudomonas aeruginosa
Procedure, shortened: as §2

[13] = test system: multidrug resistant Brazilian clinical isolates of P. aeruginosa; assay type: cell-based, Pseudomonas aeruginosa
Procedure, shortened: as §2

[14] = test system: ESBL E. coli clinical strain 64771; assay type: cell-based; conditions: ESBL clinical strain 64771
Procedure, shortened: (§3)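 Broth microdilution in Mueller Hinton medium, peptides serially diluted in 0.01% acetic acid with 0.2% BSA in polypropylene plates. Inoculum 2-7×10^5 CFU/ml, incubated overnight at 37° C. MIC is the lowest concentration with no visible growth.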

[15] = test system: ESBL Klebsiella pneumonia clinical strain 63575; assay type: cell-based
Procedure, shortened: as §3

[16] = test system: VRE Vancomycin resistant Enterococcus faecalis clinical isolates; assay type: cell-based
Procedure, shortened: as §3

[17] = test system: multidrug resistant Pseudomonas maltophilia ATCC13637; assay type: cell-based
Procedure, shortened: as §3

[18] = test system: VRE Vancomycin resistant Enterococcus faecium clinical isolates; assay type: cell-based
Procedure, shortened: as §3

LDH release = assay type: cell-based; design: dose or concentration left out as unconfirmed
Experimental: In addition the following peptides were tested for LDH release: 1002, 1005, 1012, 1010, 1013, 1018, 1020, 1026, 1028, 1032, 1033, 1035, and 1037.

MIC [2] [µM]	MIC [3] [µM]	MIC [11] [µM]	MIC (ESBL E. cloacae) [µM]	MIC [12] [µM]	MIC [13] [µM]	MIC [14] [µM]	MIC [15] [µM]	MIC [16] [µM]	MIC [17] [µM]	SMILES	Chemokine induction MCP-1 ([8]; 20 μg/ml peptide) [pg/mL]	Chemokine induction MCP-1 ([8]; 100 μg/ml peptide) [pg/mL]	Chemokine induction MCP-3 ([9]; 20 μg/ml peptide) [pg/mL]	Chemokine induction MCP-3 ([9]; 100 μg/ml peptide) [pg/mL]	Chemokine induction Gro-α ([10]; 20 μg/ml peptide) [pg/mL]	Chemokine induction Gro-α ([10]; 100 μg/ml peptide) [pg/mL]	antimicrobial activity against P. aeruginosa PAO1 (in words) [1]	other results
–	–	–	–	–	–	–	–	–	–	CC(C)[C@H](NC(=O)[C@H](CCCNC(=N)N)NC(=O)[C@H](Cc1ccccc1)NC(=O)[C@H](CCCNC(=N)N)NC(=O)[C@H](Cc1ccccc1)NC(=O)[C@H](CCCNC(=N)N)NC(=O)[C@H](Cc1ccccc1)NC(=O)[C@H](CCC(N)=O)NC(=O)[C@@H](N)Cc1c[nH]cn1)C(=O)N[C@@H](CCCNC(=N)N)C(=O)N[C@@H](CCCNC(=N)N)C(=O)N[C@@H](CCCCN)C(N)=O [HH13, HQFRFRFRVRRK] (H-HQFRFRFRVRRK-NH2; N-terminus assumed)	1	0	40	54	15	42	–	MIC P. aerug ([1]; PAO1): 50 µg/mL (≈ 28.9 µM); MIC E. faecalis [2]: >50 µg/mL; MIC E. coli (Escherichia coli UB1005): 25 µg/mL (≈ 14.4 µM); MIC S. aureus [3]: 12 µg/mL (≈ 6.93 µM); MIC S. epi. [4]: 6 µg/mL (≈ 3.46 µM); MIC C. albicans [5]: >50 µg/mL; MIC S. typhi [6]: 12 µg/mL (≈ 6.93 µM); induction of IL8 [7]: strongest abilities to induce this chemokine
>223	223 (≈ 272 µg/mL)	>223	>223	111 (≈ 135 µg/mL)	>223	223 (≈ 272 µg/mL)	>223	>223	>223	CC[C@H](C)[C@H](NC(=O)[C@H](CC(N)=O)NC(=O)[C@H](CCCCN)NC(=O)[C@H](Cc1ccccc1)NC(=O)[C@H](CCCNC(=N)N)NC(=O)[C@H](Cc1c[nH]c2ccccc12)NC(=O)[C@H](C)N)C(=O)N[C@@H](CCCNC(=N)N)C(=O)N[C@@H](CCCCN)C(N)=O [HHC126, AWRFKNIRK] (H-AWRFKNIRK-NH2; N-terminus assumed)	314	104	3	0	75	-2	did not return any generally active substances	–
>226	>226	>226	>226	>226	>226	>226	>226	>226	>226	CC[C@H](C)[C@H](NC(=O)[C@H](CCCNC(=N)N)NC(=O)[C@@H](N)CCCCN)C(=O)N[C@@H](CCSC)C(=O)N[C@@H](CCCCN)C(=O)N[C@@H](CC(C)C)C(=O)N[C@@H](CCCCN)C(=O)N[C@@H](CCSC)C(=O)N[C@@H](CCCNC(=N)N)C(N)=O [HHC133, KRIMKLKMR] (H-KRIMKLKMR-NH2; N-terminus assumed)	195	444	0	2	15	81	did not return any generally active substances	MIC [18]: >226 µM
–	–	–	–	–	–	–	–	–	–	CC[C@H](C)[C@H](NC(=O)[C@H](CCCNC(=N)N)NC(=O)[C@@H](NC(=O)[C@H](C)NC(=O)[C@@H](NC(=O)[C@@H](NC(=O)[C@H](CC(C)C)NC(=O)[C@H](CCCNC(=N)N)NC(=O)[C@@H](N)C(C)C)[C@@H](C)CC)C(C)C)C(C)C)C(=O)N[C@@H](Cc1c[nH]c2ccccc12)C(=O)N[C@@H](CCCNC(=N)N)C(=O)N[C@@H](CCCNC(=N)N)C(N)=O [compound 1018, VRLIVAVRIWRR] (H-VRLIVAVRIWRR-NH2)	–	–	–	–	–	–	–	LDH release (LDH release): None showed any LDH release
